Where two headings read alike, the source gives them in different places. Starred links: 1 amine or outer side, 2 acyl side, 3 side chain; linkers in the order of their positions; H or OH if unused. Positions of bridges follow the written chain, without caps; N, C: chain ends. Non-standard residues stand in square brackets, D forms with d. Residues, ends and D or L forms follow the SMILES beside them. Groups on a side chain read outwards from the residue. *: point of attachment. PEG28 = NCCOCCOCCOCCOCCOCCOCCOCCOCCOCCOCCOCCOCCOCCOCCOCCOCCOCCOCCOCCOCCOCCOCCOCCOCCOCCOCCOCCOCCC(=O)O; X1 = O=C(CCCC[C@@H]1SC[C@@H]2NC(=O)N[C@@H]21)NCCCOCCOCCOCCCN*; Tyr(3-NO2) = N[C@@H](Cc1ccc(O)c([N+](=O)[O-])c1)C(=O)O; Glutaryl = O=C(CCCC(=O)[*:2])[*:1]; Hyp = O=C(O)[C@@H]1C[C@@H](O)CN1; PEG4 = NCCOCCOCCOCCOCCC(=O)O; For = O=C*
Tests used:
4T1 = conditions: Table S1; mouse; flow cytometry, 1 µM biotinylated peptide, 2 mM MnCl2, on ice
Description: (§9) from DSMZ or LGC and cultured according to the distributors’ guidelines. Human, murine or
(§10) guinea pig leukocytes or macrophages were isolated and cultured as described below. Cells
(§11) growing in monolayers were detached using trypsin/EDTA and then re- suspended in complete
(§12) culture medium. After washing with washing buffer (W B: 0.9% NaCl, 10 mM Hepes, pH 7.3) at
(§13) 4°C, cells were re-suspended at 2x10^6 cells/ml in peptide blocking b uf f er ( PBB: 0.9% NaCl,
(§14) 10 m M H epes, pH 7.3, 5 m M KCl , 3% BSA, 5% FCS) and incubated for 10 minutes on ice
(§15) concentration in PBB were added to equal volumes of aliquots of 1x10^5 cells, and were
(§16) incubated f or 30 min on ice with repeated shaking to keep the cells in suspension. Except
(§17) three times wit h 1 ml W B, followed by incubation with streptavidin labeled wit h PerCP-Cy5.5
(§18) (BD Biosciences, 200 µg/ml; diluted 1:400 in PBB) for 15 min on ice. After one additional
(§19) wa s h ing step with phosphate- buffered saline (PBS) at 4°C, samples were re-suspended in
(§20) PBS with Hoechst 33258 solution (0.5 µg/ml) and analyzed using a F ACS Canto system ( at
(§21) least 1x10^4 cells per sample were counted). Evaluations were performed using FloJo software. […]
(§22) indicated cases the geometrical mean f luorescence was recorded. […]
(§23) which half-maximum binding intensity was reached (KD) was calculated using Origin 9.0 […]

MDA-MB-231 = test: Flow cytometry binding to cells; parameters: key: ++: strong binding; +: m edium binding; +/-: weak or heterogeneous binding; -: no binding; conditions: Table S1, human, 1 µM biotinylated peptide, 2 mM MnCl2, on ice
TSA = conditions: Table S1; mouse; flow cytometry, 1 µM biotinylated peptide, 2 mM MnCl2, on ice
L-929 = conditions: Table S1; mouse; flow cytometry, 1 µM biotinylated peptide, 2 mM MnCl2, on ice
Description: as §9, §10, §11, §12, §13, §14, §15, §16, §17, §18, §19, §20, §21, §22, §23

C26 = conditions: Table S1; mouse; flow cytometry, 1 µM biotinylated peptide, 2 mM MnCl2, on ice
MC38 = conditions: Table S1; mouse; flow cytometry, 1 µM biotinylated peptide, 2 mM MnCl2, on ice
PC-3 or A431 cells = conditions: PC-3 or A431 cells, incubated at 37 °C, streptavidin staining
Description: washed as described above and then re-suspended in Eagle’s minimum essential medium
incubated on ice or at 37°C. At different time points after washing 50 µl samples were taken
and added to 50 µl of Streptavidin- PerCP-Cy5.5 (diluted 1:200), incubated on ice f or 15 min,
washed with PBS, and analyzed in PBS with Hoechst solution. Fluorescent signals were
plotted against time between washing and streptavidin addition.
over time after incubation on ice and at 37°C.
labeled streptavidin as described previously f or flow cytometry assays.

NIH-3T3 = conditions: mouse, flow cytometry, 1 µM biotinylated peptide
Description: as §9, §10, §11, §12, §13, §14, §15, §16, §17, §18, §19, §20
least 1x10^4 cells per sample were counted). Evaluations were performed using FloJo software.
W hole cells were gated i n a FSC/SSC plot and live gating was based on Hoechst exclusion.
After gating out debris, aggregates and dead cells, overlay histograms in the PerCP-Cy5.5
indicated cases the geometrical mean f luorescence was recorded.
For determining binding affinity, a rang e of concentrations of the biotinylated compound was
tested and the f luorescent signals were plotted against concentration. The concentration at
which half-maximum binding intensity was reached (KD) was calculated using Origin 9.0
sof tware and a “one site specif ic binding” fit (y =(Bmax* x) /(KD+x) ).
f luorescent signals were plotted against competitor concentration. The concentration at which

primary monocytes 2 days = test: Flow cytometry binding to cells; conditions: 1 µM biotinylated peptide; further: key: ++: Strong binding; +: medium binding; +/−: weak binding; −: no binding
MCF-7 = test: Flow cytometry binding to cells; conditions: Table S1, human, 1 µM biotinylated peptide, 2 mM MnCl2, on ice; further: key: ++: strong binding; +: m edium binding; +/-: weak or heterogeneous binding; -: no binding
HUVEC = test: Flow cytometry binding to cells; parameters: species or system Human; conditions: 1 µM biotinylated peptide
GPC-16 = test: Flow cytometry binding to cells; parameters: key to the marks not given beside the values; conditions: 1 µM biotinylated peptide
U-138MG = test: Flow cytometry binding to cells; parameters: key: ++: strong binding; +: m edium binding; +/-: weak or heterogeneous binding; -: no binding; conditions: Table S1, human, 1 µM biotinylated peptide, 2 mM MnCl2, on ice
A431 = test: Flow cytometry binding to cells; parameters: species or system Human; key to the marks not given beside the values; conditions: 1 µM biotinylated peptide
HT-29 = test: Flow cytometry binding to cells; parameters: key: ++: strong binding; +: m edium binding; +/-: weak or heterogeneous binding; -: no binding; conditions: Table S1, human, 1 µM biotinylated peptide, 2 mM MnCl2, on ice
PBEC = conditions: Table S1; pig; flow cytometry, 1 µM biotinylated peptide, 2 mM MnCl2, on ice
JH4 clone 1 = test: Flow cytometry binding to cells; parameters: key to the marks not given beside the values; conditions: 1 µM biotinylated peptide
HeLa = system: HeLa; parameters: key to the marks not given beside the values; conditions: Table S1; human; flow cytometry, 1 µM biotinylated peptide, 2 mM MnCl2, on ice
3LL-S = conditions: Table S1; mouse; flow cytometry, 1 µM biotinylated peptide, 2 mM MnCl2, on ice
VX2 / J S-2-2r = test: Flow cytometry binding to cells; parameters: key: ++: strong binding; +: m edium binding; +/-: weak or heterogeneous binding; -: no binding; conditions: Table S1, rabbit, 1 µM biotinylated peptide, 2 mM MnCl2, on ice
K562 = test: Flow cytometry binding to cells; parameters: species or system Human; conditions: 1 µM biotinylated peptide; further: key: ++: Strong binding; +: medium binding; +/−: weak binding; −: no binding
A549 = system: A549; parameters: key to the marks not given beside the values; conditions: Table S1; human; flow cytometry, 1 µM biotinylated peptide, 2 mM MnCl2, on ice
PC-3 = test: Flow cytometry binding to cells; parameters: species or system Human; key to the marks not given beside the values; conditions: 1 µM biotinylated peptide
J774A.1 = conditions: mouse, flow cytometry, 1 µM biotinylated peptide
primary macrophages 7d = test: Flow cytometry binding to cells; conditions: 1 µM biotinylated peptide; further: key: ++: Strong binding; +: medium binding; +/−: weak binding; −: no binding
primary lymphocytes = test: Flow cytometry binding to cells; conditions: 1 µM biotinylated peptide; further: key: ++: Strong binding; +: medium binding; +/−: weak binding; −: no binding
U-87MG = test: Flow cytometry binding to cells; parameters: key: ++: strong binding; +: m edium binding; +/-: weak or heterogeneous binding; -: no binding; conditions: Table S1, human, 1 µM biotinylated peptide, 2 mM MnCl2, on ice
foreskin fibroblasts = conditions: flow cytometry, 1 µM biotinylated peptide
primary granulocytes = test: Flow cytometry binding to cells; conditions: 1 µM biotinylated peptide; further: key: ++: Strong binding; +: medium binding; +/−: weak binding; −: no binding
primary monocytes = test: Flow cytometry binding to cells; conditions: 1 µM biotinylated peptide; further: key: ++: Strong binding; +: medium binding; +/−: weak binding; −: no binding
Hepa1–6 = conditions: mouse, flow cytometry, 1 µM biotinylated peptide
[1] = system: primary macrophages 7 days; test: Flow cytometry binding to cells; conditions: 1 µM biotinylated peptide; on binding to macrophages 7 days: key: ++: strong binding; +: m edium binding; +/-: weak or heterogeneous binding; -: no binding
EG7 = conditions: Table S1; mouse; flow cytometry, 1 µM biotinylated peptide, 2 mM MnCl2, on ice
104C1 = test: Flow cytometry binding to cells; parameters: key to the marks not given beside the values; conditions: 1 µM biotinylated peptide
3LL-R = conditions: mouse, flow cytometry, 1 µM biotinylated peptide
leukocytes = conditions: Table S1; rabbit; flow cytometry, 1 µM biotinylated peptide, 2 mM MnCl2, on ice
MHEC5-T = conditions: Table S1; mouse; flow cytometry, 1 µM biotinylated peptide, 2 mM MnCl2, on ice
E0771 = conditions: Table S1; mouse; flow cytometry, 1 µM biotinylated peptide, 2 mM MnCl2, on ice
Description: as §9, §10, §11, §12, §13, §14, §15, §16, §17, §18, §19, §20, §21, §22, §23

human monocytes = test: Cytokine release assay (ELISA); format: cell-based; conditions: 6 h incubation
Description: Phorbol
(§1) 12- m yr ist oyl 13-acetate (P MA , 3 µg/ml) was used as a positive control. All samples were f ixed
(§2) in 1% formaldehyde Hoechst 33258 solution (0.5 µg/ml) was added and cells were k ept on ice
(§3) until analysis using a FACS Canto system. After gating for live cells and granulocytes (human
(§4) cells) or non- lymphocytes (murine cells) in the FSC/SSC plot, rhodamine-positive cells were
(§5) identif ied in a PE/SSC plot, using an unstimulated sample as a reference.
(§6) Human monocytes, after an overnight pre- culture, were incubated f or 6 more hours in 1 ml
(§7) RPMI+10% FCS containing 100 nM F2- 2PEG, 0.1 ng/ml LPS (Sigma- Aldrich), or no stimulus.
All experiments were performed in duplicates. Supernatants were centrif uged and aliq uot s of
150 µl were stored at - 80 °C until cytokine levels were measured with commercially available
ELISA kits (Ready-set-go system, eBiosciences). Cytokine concentrations in supernatants
were measured and calculated based on the standards included wit hin the ELISA kits and as
described by the manufacturer’s instructions. The following k its were used: Human TNFα (88-
analysis. Measured cytok ine levels were normalized to 1 (the average of the two unstimulated

mouse skin = test: Local skin inflammation model, immune cell infiltration; format: in vivo; conditions: mouse skin, 24 h after subcutaneous injection of 100 nmol in Matrigel, HE sections
Description: Animals: Eighth Edition. W ashington, DC: The National Academies Press, 2011) were […]
Committee (LANUV AZ. 87- 51.04.2010.A278). All experiments were performed in the Institute […]
GmbH (Sulzf eld, Germany) were used. Mice were housed in individual ventilated cages under […]
humidity and a 12h dark/light cycle.
Soest, Germany) was given ad libitum. Guinea pigs were housed in conventional open cages in the same way as describe for mice. Animals were allowed to acclimatize to their […]
additional immunohistochemical stainings with antibodies against granulocytes/monocytes

human leukocytes = test: Chemotaxis assay; format: cell-based; conditions: compared with the non-PEGylated effector
Description: Human leukocytes were re-suspended in Hank ’s Buffered Saline Solution (HBSS, without
Ca2+, Mg 2+) with 10 mM Hepes pH 7.3 and 0.3% BSA at 10^7 cells/ml. Cells were pre-warmed
at 37°C for 20 min. After adding the effector dilutions in the lower compartment of 24-well plates
(800 µl/well), a Millicell culture plate insert with 5 µm pore size was placed in each well, f ollowed
by immediate addition of 200 µl (2 million) leuk ocytes. In one well, the cells were added without
a f ilter insert, allowing determination of the input number. The plate was incubated at 37°C and
5% CO2 f or 45 min. 5 mM EDTA solution was added and the plate was incubated f or another
10 min at 37 °C. […]
Phorbol
as §1, §2, §3, §4, §5, §6, §7
(§8) All experiments were performed in duplicates. […]

human granulocytes = test: Oxidative burst (dihydro-rhodamine oxidation) assay; format: cell-based; conditions: compared with the non-PEGylated effector
Description: Activation of the oxidative burst (phagocyte NADPH oxidase) was measured using a
dihydrorhodamine (DHR, Molecular Probes) oxidation assay, based on a method described
previously1. In brief, 200 µl samples of human, murine or guinea pig leukocytes (1.25x 106
cells/ml in HHBS + 10 mM Hepes, pH 7.3, 0.3% BSA and 5 mM EDTA) were loaded with DHR
and catalase (Sigma-Aldrich) and cytochalasin B (Sigma-Aldrich) were added. Cells were pre-
incubated at 37°C for 10 min followed by the addition of 50 µl of effector dilutions (5x the
intended concentration) in the same buffer and another 15 min of incubation at 37°C. Phorbol
as §1, §2, §3, §4, §5, §6, §7, §8

[2] = 2 mM MnCl2, 30 min on ice, streptavidin-PerCP-Cy5.5
[3] = Table S1, human, 2 mM MnCl2, on ice
[4] = human, 2 mM MnCl2, 30 min on ice, streptavidin-PerCP-Cy5.5
[5] = Table S1, guinea pig, 2 mM MnCl2, on ice
[6] = guinea pig, 2 mM MnCl2, 30 min on ice, streptavidin-PerCP-Cy5.5
[7] = 100 nM F2-2PEG or 0.1 ng/ml LPS

NC(=O)C[C@@H]1NC(=O)[C@@H]2C[C@@H](O)CN2C(=O)CNC(=O)[C@H](Cc2ccc(O)c([N+](=O)[O-])c2)NC(=O)CNC(=O)[C@@H](CC(=O)O)NC(=O)[C@H](N)CSSC[C@H](C(=O)NCCOCCOCCOCCOCCC(=O)N[C@@H](CCCCNC(=O)CCCC(=O)NCCCOCCOCCOCCCNC(=O)CCCC[C@@H]2SC[C@@H]3NC(=O)N[C@@H]32)C(N)=O)NC1=O [B9-Biotin] (H-[dC][dD]G[Tyr(3-NO2)]G[Hyp]N[dC][PEG4]K([Glutaryl-X1])-NH2; disulfide 1-8)
binding to 4T1 (4T1): + | binding to MDA-MB-231 (MDA-MB-231): ++ | binding to TSA (TSA): + | binding to L-929 (L-929): - | binding to C26 (C26): + | binding to MC38 (MC38): - | streptavidin signal on cells after 5 min (PC-3 or A431 cells): no signal above background | binding to NIH-3T3 (NIH-3T3; Table S1, 2 mM MnCl2, on ice): + | binding to NIH-3T3 (NIH-3T3; [2]): + | binding to monocytes 2 days (primary monocytes 2 days; [3]): - | binding to primary monocytes 2 days (primary monocytes 2 days; [4]): − | binding to MCF-7 (MCF-7): + | binding to HUVEC (HUVEC; [2]): + | binding to HUVEC (HUVEC; [3]): + | binding to GPC-16 (GPC-16; [5]): ++ | binding to GPC-16 (GPC-16; [6]): ++ | binding to U-138MG (U-138MG): ++ | binding to A431 (A431; [2]): ++ | binding to A431 (A431; [3]): ++ | binding to HT-29 (HT-29): ++ | binding to PBEC (PBEC): + | binding to JH4 clone 1 (JH4 clone 1; [5]): ++ | binding to JH4 clone 1 (JH4 clone 1; [6]): ++ | binding to HeLa (HeLa): ++ | binding to 3LL-S (3LL-S): + | binding to VX2 / J S-2-2r (VX2 / J S-2-2r): ++ | binding to K562 (K562; [2]): − | binding to K562 (K562; [3]): - | binding to A549 (A549): ++ | binding to PC-3 (PC-3; [2]): ++ | binding to PC-3 (PC-3; [3]): ++ | binding to J774A.1 (J774A.1; Table S1, 2 mM MnCl2, on ice): - | binding to J774A.1 (J774A.1; [2]): − | binding to macrophages 7d (primary macrophages 7d; Table S1, mouse, 2 mM MnCl2, on ice): - | binding to primary macrophages 7d (primary macrophages 7d; mouse, 2 mM MnCl2, 30 min on ice, streptavidin-PerCP-Cy5.5): − | binding to fresh lymphocytes (primary lymphocytes; [3]): - | binding to primary lymphocytes (primary lymphocytes; [4]): − | binding to U-87MG (U-87MG): ++ | binding to foreskin fibroblasts (foreskin fibroblasts; [3]): - | binding to foreskin fibroblasts (foreskin fibroblasts; [2]): − | binding to fresh granulocytes (primary granulocytes; [3]): - | binding to primary granulocytes (primary granulocytes; [4]): − | binding to fresh monocytes (primary monocytes; [3]): - | binding to primary monocytes (primary monocytes; [4]): − | binding to Hepa1-6 (Hepa1–6; Table S1, 2 mM MnCl2, on ice): + | binding to Hepa1–6 (Hepa1–6; [2]): + | binding to macrophages 7 days [1, 3]: +/- | binding to primary macrophages 7 days [1, 4]: +/− | binding to EG7 (EG7): - | binding to 104C1 (104C1; [5]): ++ | binding to 104C1 (104C1; [6]): ++ | binding to 3LL-R (3LL-R; Table S1, 2 mM MnCl2, on ice): + | binding to 3LL-R (3LL-R; [2]): + | binding to leukocytes (leukocytes): - | binding to MHEC5-T (MHEC5-T): + | binding to E0771 (E0771): -

CC[C@H](C)[C@H](NC(=O)[C@H](CCSC)NC=O)C(=O)N[C@@H](Cc1ccccc1)C(=O)N[C@@H](CC(C)C)C(=O)NCC(=O)NCC(=O)N[C@@H](CCCCNC(=O)CCOCCOCCOCCOCCOCCOCCOCCOCCOCCOCCOCCOCCOCCOCCOCCOCCOCCOCCOCCOCCOCCOCCOCCOCCOCCOCCOCCOCCN)C(=O)N[C@@H](CCCCNC(=O)CCOCCOCCOCCOCCOCCOCCOCCOCCOCCOCCOCCOCCOCCOCCOCCOCCOCCOCCOCCOCCOCCOCCOCCOCCOCCOCCOCCOCCN)C(=O)O [F2-2PEG] (For-MIFLGGK(PEG28)K(PEG28)-OH)
IL-1β secreted (human monocytes; 100 nM F2-2PEG): increased | IL-6 level (human monocytes; [7]): not significantly increased | IL-8 level (human monocytes; [7]): not significantly increased | TNFα level (human monocytes; [7]): not significantly increased | immune cell infiltration at the injection site (mouse skin): clearly showed infiltration by immune cells | loss of potency to induce chemotaxis when linked to the PEG chains (human leukocytes): 1–2 orders of magnitude | loss of potency for neutrophil activation (superoxide production) when linked to the PEG chains (human granulocytes): 1–2 orders of magnitude

— publication PMC5730604
